≈ marks a conversion by molar mass, not a printed value. Where two headings read alike, the source gives them in different places.
Key:
[1] = test system: Mycobacterium tuberculosis H37Ra; test: Antimycobacterial screening (microdilution broth, resazurin) against M. tuberculosis H37Ra; assay type: cell-based; settings: for MIC: Mycobacterium tuberculosis; for MIC values for standards, range, M. tuberculosis: range of MIC of the standards in the assay
[2] = test system: Mycobacterium smegmatis DSM 43465 (ATCC 607); test: Antimycobacterial screening (microdilution broth, resazurin) against M. smegmatis; assay type: cell-based; settings: for MIC: Mycolicibacterium smegmatis, read-out: MIC M. smegmatis; for MIC values for standards, range, M. smegmatis: range of MIC of the standards in the assay
[3] = test system: Mycobacterium aurum DSM 43999 (ATCC 23366); test: Antimycobacterial screening (microdilution broth, resazurin) against M. aurum; assay type: cell-based; settings: for MIC: Mycolicibacterium aurum, read-out: MIC M. aurum; for MIC values for standards, range, M. aurum: range of MIC of the standards in the assay
HepG2 cells = test: cells; assay type: cell-based, Human; settings: for IC50: Homo sapiens, HepG2, MTT, 24 h incubation
[4] = H37RA, read-out: MIC Mtb H37Ra (µM)
[5] = M. tuberculosis H37Ra, resazurin added after 120 h, read-out: MIC Mtb H37Ra
[6] = H37RA, 120 h, read-out: MIC Mtb H37Ra

SMILES: COC1CC2C(=CC1OC(=O)c1cc(C)cc(C)c1)C1CN2Cc2cc3c(cc21)OCO3 (stereo not shown) [3a, 2-O-(3,5-dimethylbenzoyl)-3-O-methylpancracine]
- MIC [1, 4]: 16.6 µM
- MIC [1, 5]: 7.81 µg/mL
- MIC ([2]; 48 h): 15.6 µg/mL (≈ 36 µM)
- MIC ([3]; 72 h): 7.81 µg/mL (≈ 18 µM)
- SI (selectivity index) (HepG2 cells): 2.45
- IC50 (HepG2 cells): 40.6 ± 7.6 µM

SMILES: COC1CC2C(=CC1OC(=O)c1c(C)cc(C)cc1C)C1CN2Cc2cc3c(cc21)OCO3 (stereo not shown) [3b, 2-O-(2,4,6-trimethylbenzoyl)-3-O-methylpancracine]
- MIC [1, 4]: 16.1 µM
- MIC [1, 5]: 7.81 µg/mL
- MIC ([2]; 48 h): 15.6 µg/mL (≈ 34.9 µM)
- MIC ([3]; 72 h): 7.81 µg/mL (≈ 17.5 µM)
- SI (selectivity index) (HepG2 cells): 1.94
- IC50 (HepG2 cells): 31.2 ± 5.4 µM

SMILES: COC1CC2C(=CC1OC(=O)c1ccc(C(C)(C)C)cc1)C1CN2Cc2cc3c(cc21)OCO3 (stereo not shown) [3c, 2-O-(4-tert-butylbenzoyl)-3-O-methylpancracine]
- MIC [1, 4]: 7.9 µM
- MIC [1, 5]: 3.91 µg/mL
- MIC ([2]; 48 h): 7.81 µg/mL (≈ 16.9 µM)
- MIC ([3]; 72 h): 7.81 µg/mL (≈ 16.9 µM)
- SI (selectivity index) (HepG2 cells): 3.08
- IC50 (HepG2 cells): 24.3 ± 2.4 µM

SMILES: CCCCc1ccc(C(=O)OC2C=C3C4CN(Cc5cc6c(cc54)OCO6)C3CC2OC)cc1 (stereo not shown) [3d, 2-O-(4-butylbenzoyl)-3-O-methylpancracine]
- MIC [1, 4]: 7.9 µM
- MIC [1, 5]: 3.91 µg/mL
- MIC ([2]; 48 h): 7.81 µg/mL (≈ 16.9 µM)
- MIC ([3]; 72 h): 7.81 µg/mL (≈ 16.9 µM)
- SI (selectivity index) (HepG2 cells): 2.59
- IC50 (HepG2 cells): 20.5 ± 0.7 µM

SMILES: CCOc1cc(OCC)cc(C(=O)OC2C=C3C4CN(Cc5cc6c(cc54)OCO6)C3CC2OC)c1 (stereo not shown) [3e, 2-O-(3,5-diethoxybenzoyl)-3-O-methylpancracine]
- MIC [1, 6]: 3.91 µg/mL
- MIC [1, 4]: 7.8 µM
- MIC ([2]; 48 h): 15.6 µg/mL (≈ 31.7 µM)
- MIC ([3]; 72 h): 7.81 µg/mL (≈ 15.8 µM)
- IC50 (HepG2 cells): 24.9 ± 1.7 µM

SMILES: COC1CC2C(=CC1OC(=O)c1ccc3ccccc3c1)C1CN2Cc2cc3c(cc21)OCO3 (stereo not shown) [3g, 2-O-(2-naphthoyl)-3-O-methylpancracine]
- MIC [1, 4]: 31.8 µM
- MIC [1, 5]: 15.6 µg/mL
- MIC ([2]; 48 h): 15.6 µg/mL (≈ 34.3 µM)
- MIC ([3]; 72 h): 15.6 µg/mL (≈ 34.3 µM)

SMILES: O=C(O)c1cn(C2CC2)c2cc(N3CCNCC3)c(F)cc2c1=O [ciprofloxacin, reference compound]
- MIC [1, 4]: 0.75 µM
- MIC [1, 5]: 0.25 µg/mL
- MIC values for standards, range, M. tuberculosis [1]: 0.125 to 0.25 µg/mL
- MIC ([2]; resazurin added after 48 h): 0.125 µg/mL (≈ 0.377 µM)
- MIC values for standards, range, M. smegmatis [2]: 0.0625 to 0.125 µg/mL
- MIC ([3]; resazurin added after 72 h): 0.0156 µg/mL (≈ 0.0472 µM)
- MIC values for standards, range, M. aurum [3]: 0.0078 to 0.0156 µg/mL

SMILES: COc1ccc2c3c1O[C@H]1C[C@@H](O)C=C[C@@]31CCN(C)C2 [galanthamine (1), galanthamine, reference compound]
- MIC [1, 4]: ≥ 1740 µM
- MIC [1, 5]: ≥ 500 µg/mL
- MIC ([2]; 48 h): ≥ 500 µg/mL
- MIC ([3]; 72 h): ≥ 500 µg/mL

SMILES: COc1cc2c(cc1OC)[C@@H]1[C@H](O)[C@@H](OC)C=C3CCN(C2)[C@H]31 [galanthine (6), galanthine]
- MIC [1, 4]: 788 µM
- MIC [1, 5]: 250 µg/mL
- MIC ([2]; 48 h): ≥ 500 µg/mL
- MIC ([3]; 72 h): 250 µg/mL (≈ 788 µM)

SMILES: COC1C=CC23c4cc5c(cc4CN(CC2O)C3C1)OCO5 (stereo not shown) [haemanthamine (2), haemanthamine]
- MIC [1, 4]: ≥ 1660 µM
- MIC [1, 5]: ≥ 500 µg/mL
- MIC ([2]; 48 h): ≥ 500 µg/mL
- MIC ([3]; 72 h): ≥ 500 µg/mL

SMILES: NNC(=O)c1ccncc1 [isoniazid, reference compound]
- MIC [1, 6]: 0.25 µg/mL
- MIC [1, 4]: 1.82 µM
- MIC values for standards, range, M. tuberculosis [1]: 0.125 to 0.25 µg/mL
- MIC ([2]; resazurin added after 48 h): 31.2 µg/mL (≈ 228 µM)
- MIC values for standards, range, M. smegmatis [2]: 7.81 to 15.625 µg/mL
- MIC ([3]; 72 h): 3.91 µg/mL (≈ 28.5 µM)
- MIC values for standards, range, M. aurum [3]: 1.95 to 3.91 µg/mL

SMILES: COc1cc2c(cc1OC)[C@@H](O)O[C@@H]1CC=C3CCN(C)[C@H]3[C@H]21 [lycorenine (9), lycorenine]
- MIC [1, 4]: ≥ 394 µM
- MIC [1, 5]: ≥ 125 µg/mL
- MIC ([2]; 48 h): ≥ 125 µg/mL
- MIC ([3]; 72 h): ≥ 125 µg/mL

SMILES: O[C@H]1[C@H]2c3cc4c(cc3CN3CCC(=C[C@@H]1O)[C@H]23)OCO4 [lycorine (7), lycorine]
- MIC [1, 4]: ≥ 1740 µM
- MIC [1, 5]: ≥ 500 µg/mL
- MIC ([2]; 48 h): ≥ 500 µg/mL
- MIC ([3]; 72 h): ≥ 500 µg/mL

SMILES: COc1cc2c(cc1OC)[C@@]13C=C[C@@H](O)C[C@@H]1N(CC3)C2 [maritidine (5), maritidine]
- MIC [1, 4]: ≥ 1740 µM
- MIC [1, 5]: ≥ 500 µg/mL
- MIC ([2]; 48 h): ≥ 500 µg/mL
- MIC ([3]; 72 h): ≥ 500 µg/mL

SMILES: CO[C@H]1C=C2[C@H]3C[N@@](Cc4cc5c(cc43)OCO5)[C@H]2C[C@@H]1O [montanine (8), montanine]
- MIC [1, 4]: ≥ 1660 µM
- MIC [1, 5]: ≥ 500 µg/mL
- MIC ([2]; 48 h): ≥ 500 µg/mL
- MIC ([3]; 72 h): ≥ 500 µg/mL

SMILES: CO[C@H]1/C=C/O[C@@]2(C)Oc3c(C)c(O)c4c(O)c(c(/C=N/N5CCN(C)CC5)c(O)c4c3C2=O)NC(=O)/C(C)=C\C=C\[C@H](C)[C@H](O)[C@@H](C)[C@@H](O)[C@@H](C)[C@H](OC(C)=O)[C@@H]1C [rifampicin, reference compound]
- MIC [1, 6]: 0.00625 µg/mL
- MIC [1, 4]: 0.0075 µM
- MIC values for standards, range, M. tuberculosis [1]: 0.0039 to 0.0078 µg/mL
- MIC ([2]; resazurin added after 48 h): 6.25 µg/mL (≈ 7.59 µM)
- MIC ([3]; resazurin added after 72 h): 0.39 µg/mL (≈ 0.474 µM)
- MIC values for standards, range, M. aurum [3]: 0.39 to 0.78 µg/mL

SMILES: O[C@@H]1C=C[C@]23CCN(Cc4cc5c(cc42)OCO5)[C@H]3C1 [vittatine (4), vittatine]
- MIC [1, 4]: ≥ 1840 µM
- MIC [1, 5]: ≥ 500 µg/mL
- MIC ([2]; 48 h): ≥ 500 µg/mL
- MIC ([3]; 72 h): 250 µg/mL (≈ 921 µM)

From article PMC8512562, “Semisynthetic Derivatives of Selected Amaryllidaceae Alkaloids as a New Class of Antimycobacterial Agents” (Molecules, 2021)
